{"source": "paper PMC13061384", "about": "“Rapid behavioral screening in the planarian Dugesia japonica is a biologically relevant system to study neurotoxicity of organophosphorus pesticides mixtures” (Frontiers in Toxicology, 2026)", "origin": "cited, not measured here", "conditions": "ref PubChem"}
{"smiles": "CCOP(=S)(OCC)Oc1ccc([N+](=O)[O-])cc1", "note": "[PT, Parathion]", "values": [{"measurement": "logP", "value": 3.8}]}
